The values that follow come from US6376518B1, “Acyl derivatives of 4-demethylpenclomedine, use thereof and preparation thereof” (Southern Research Institute, priority 1999, dated 2002).

Marks after values point to notes of the source that are not given here.

The nature of test [1]: Anti-cancer activity of precursor compounds.
Test [2] concerns human MX-1 mammary tumor. Nature of the test: In vivo antitumor activity vs i.c.-implanted human MX-1 mammary tumor xenograft in athymic mice. To be noted: ic MX-1; for Median % ILS (dying mice only) / Tumor-Free-Surv/Total: Days 1-5. (Xenograft models place foreign cells or tissue in a host animal.)
Test [3] concerns human MX-1 mammary tumor. Briefly: In vivo antitumor activity vs s.c.-implanted human MX-1 mammary tumor xenograft in athymic mice. To be noted: for T-C / Tumor-Free-Surv/Total: sc MX-1; for antitumor activity (in words): MX-1 implanted s.c. or i.c.
Setting [4] is: oral (gavage) 135 mg/kg/dose, Days 12-16.
Where [5] appears, read: oral (gavage) 135 mg/kg/dose, Days 13-17.
The mark [6] stands for this setting: optimal doses (LD10 or less), schedule QD1-5, administered LP.

Consider `CCOc1c(Cl)c(OC)nc(C(Cl)(Cl)Cl)c1Cl` [3,5-dichloro-4-ethoxy-6 methoxy-2-(trichloromethyl) pyridine], for which the “anti-cancer activity (in words)” value in test [1] is given as “active anti-cancer activity”.
For `COc1nc(C(Cl)(Cl)Cl)c(Cl)c(OC(=O)CCl)c1Cl` [DM-CA-PEN], the “Median % ILS (dying mice only)” value in test [2] (oral (gavage) 135 mg/kg/dose) is on record as “+84%”. The T-C in test [3] (IP 60 mg/kg/dose, Days 12-16) is over 41.0 days; in test [3] (setting [4]), over 41.0 days. The Tumor-Free-Surv/Total is 3/5 in test [3] (IP 60 mg/kg/dose, Days 12-16) and 5/5 in test [3] (setting [4]).
Regarding `COC(=O)CCC(=O)Oc1c(Cl)c(OC)nc(C(Cl)(Cl)Cl)c1Cl` [DM-CMP-PEN], the “Median % ILS (dying mice only)” value in test [2] (IP 90 mg/kg/dose) is “+87%”; in test [2] (oral (gavage) 90 mg/kg/dose), “+76%”. Moreover, the Tumor-Free-Surv/Total is given as 3/5 in test [3] (IP 135 mg/kg/dose, Days 11-15) and 2/5 in test [3] (setting [5]).
For the compound `CCOc1nc(C(Cl)(Cl)Cl)c(Cl)c(OCC)c1Cl` [3,5-dichloro-4,6-diethoxy-2-(trichloromethyl)pyridine], the “anti-cancer activity (in words)” value in test [1] was “active anti-cancer activity”.
For `COc1nc(C(Cl)(Cl)Cl)c(Cl)c(OC(=O)c2ccc([N+](=O)[O-])o2)c1Cl` [DM-NF-PEN], the “Median % ILS (dying mice only)” value in test [2] (IP 135 mg/kg/dose) is listed as “+59%”. The Tumor-Free-Surv/Total in test [3] (IP 90 mg/kg/dose, Days 12-16) was 4/5.
With `COc1nc(C(Cl)(Cl)Cl)c(Cl)c(OC(=O)c2ccccc2)c1Cl` [DM-B-PEN], the figures for the “Median % ILS (dying mice only)” value in test [2] (IP 135 mg/kg/dose) and in test [2] (oral (gavage) 135 mg/kg/dose) were “+84%” and “+12%”, respectively. In addition, the “antitumor activity (in words)” value was “high activity” in test [3] (i.p. administration) and “low antitumor activity” in test [3] (oral drug treatment). For the same compound, the Tumor-Free-Surv/Total in test [3] (IP 135 mg/kg/dose, Days 11-15) is on record as 5/5; in test [3] (setting [5]) it was 0/5. In test [3] (setting [5]), this compound yielded a T-C of -1.4 days.
For `COCC(=O)Oc1c(Cl)c(OC)nc(C(Cl)(Cl)Cl)c1Cl` [DM-MA-PEN], the “activity against i.c.-implanted tumor in comparison to PEN and DM-PEN (in words)” value in test [2] is “significant activity”. For the same compound, in test [2] (IP 90 mg/kg/dose), the Tumor-Free-Surv/Total is 1/5. Also, the Survivors in test [2] (setting [6]) is listed as 1/5. In test [2] (oral (gavage) 90 mg/kg/dose), the “Median % ILS (dying mice only)” value is “+110%” and the Tumor-Free-Surv/Total is recorded as 1/5. Further, in test [3] (setting [4]), the T-C is on record as over 41.0 days and the Tumor-Free-Surv/Total is 5/5.
Regarding `COc1nc(C(Cl)(Cl)Cl)c(Cl)c(OC(=O)c2cccs2)c1Cl` [DM-TC-PEN], in test [2], the “activity against i.c.-implanted tumor in comparison to PEN and DM-PEN (in words)” value is on record as “significant activity”. In test [2] (IP 135 mg/kg/dose), the “Median % ILS (dying mice only)” value is “+100%” and the Tumor-Free-Surv/Total is on record as 0/5. In test [2] (setting [6]), the “Median % ILS (based on dying mice only)” value was 100^d % and the Survivors was 0/5. In addition, the Tumor-Free-Surv/Total in test [3] (IP 90 mg/kg/dose, Days 12-16) was 4/5.
As to `C=CC(=O)Oc1c(Cl)c(OC)nc(C(Cl)(Cl)Cl)c1Cl` [DM-AC-PEN], in test [2] (IP 60 mg/kg/dose), the “Median % ILS (dying mice only)” value is given as “+55%”. Also, in test [3] (IP 60 mg/kg/dose, Days 12-16), the T-C is 30.0 days and the Tumor-Free-Surv/Total is given as 1/5.
Regarding `COc1nc(C(Cl)(Cl)Cl)c(Cl)c(OC(=O)C(C)(C)C)c1Cl` [DM-P-PEN], the entries for the “Median % ILS (dying mice only)” value in test [2] (IP 135 mg/kg/dose) and in test [2] (oral (gavage) 135 mg/kg/dose) were “+64%” and “+20%”, respectively. Moreover, the Tumor-Free-Surv/Total in test [3] (IP 135 mg/kg/dose, Days 11-15) is 5/5; in test [3] (setting [5]), 0/5. For the same compound, in test [3] (setting [5]), the T-C is listed as 0.9 days.
